Laboratory results: PubChem BioAssay (NCI)
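Each compound was tested at five concentrations against cells in 96-well plates for 48 hours. Here, GI50 denotes the concentration required for 50% inhibition of growth. TGI: concentration producing complete growth inhibition.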

Experiments:
Experiment in all cases: NCI-60 cell line screen, 48 h
[1] = tested on: 786-0 renal
[2] = tested on: A498 renal
[3] = tested on: A549 NSCLC
[4] = tested on: ACHN renal
[5] = tested on: BT-549 breast
[6] = tested on: CAKI-1 renal
[7] = tested on: CCRF-CEM leukemia
[8] = tested on: COLO 205 colon
[9] = tested on: DU-145 prostate
[10] = tested on: EKVX NSCLC
[11] = tested on: HCC-2998 colon
[12] = tested on: HCT-116 colon
[13] = tested on: HCT-15 colon
[14] = tested on: HL-60(TB) leukemia
[15] = tested on: HOP-62 NSCLC
[16] = tested on: HOP-92 NSCLC
[17] = tested on: HS 578T breast
[18] = tested on: HT29 colon
[19] = tested on: IGROV1 ovarian
[20] = tested on: K-562 leukemia
[21] = tested on: KM12 colon
[22] = tested on: M14 melanoma
[23] = tested on: MALME-3M melanoma
[24] = tested on: MCF7 breast
[25] = tested on: MDA-MB-435
[26] = tested on: MOLT-4 leukemia
[27] = tested on: NCI-H226 lung
[28] = tested on: NCI-H23 lung
[29] = tested on: NCI-H460 lung
[30] = tested on: NCI-H522 lung
[31] = tested on: OVCAR-4 ovarian
[32] = tested on: OVCAR-5 ovarian
[33] = tested on: OVCAR-8 ovarian
[34] = tested on: PC-3 prostate
[35] = tested on: RPMI-8226 leukemia
[36] = tested on: RXF 393 renal
[37] = tested on: SF-268 CNS
[38] = tested on: SF-295 CNS
[39] = tested on: SF-539 CNS
[40] = tested on: SK-MEL-2 melanoma
[41] = tested on: SK-MEL-28 melanoma
[42] = tested on: SK-MEL-5 melanoma
[43] = tested on: SK-OV-3 ovarian
[44] = tested on: SN12C renal
[45] = tested on: SNB-19 CNS
[46] = tested on: SNB-75 CNS
[47] = tested on: SR leukemia
[48] = tested on: SW-620 colon
[49] = tested on: TK-10 renal
[50] = tested on: U251 CNS
[51] = tested on: UACC-257 melanoma
[52] = tested on: UACC-62 melanoma
[53] = tested on: MDA-MB-231 breast
[54] = tested on: NCI/ADR-RES ovarian
[55] = tested on: OVCAR-3 ovarian
[56] = tested on: UO-31 renal

For O=C(Nc1ccc(F)c(F)c1)c1cc(-c2ccc(F)cc2F)ccc1O, the GI50 [1] was 1120 nM, the TGI [1] was 2900 nM and the GI50 [2] was 636 nM. The TGI [2] was 2070 nM, the GI50 [3] was 1570 nM and the TGI [3] was over 50000 nM. The GI50 [4] was 1460 nM, the TGI [4] was 4550 nM and the GI50 [5] was 1060 nM. The TGI [5] was 7180 nM, the GI50 [6] was 1100 nM and the TGI [6] was 3520 nM. It also gave a GI50 [7] of 1620 nM, a TGI [7] of over 50000 nM and a GI50 [8] of 10600 nM. The TGI [8] was 30500 nM, the GI50 [9] was 1850 nM and the TGI [9] was over 50000 nM. The GI50 [10] was 1380 nM, the TGI [10] was 15700 nM and the GI50 [11] was 1490 nM. It also gave a TGI [11] of over 50000 nM, a GI50 [12] of 1120 nM and a TGI [12] of 5940 nM. It also gave a GI50 [13] of 1430 nM, a TGI [13] of 6230 nM and a GI50 [14] of 1110 nM. For the same compound, the TGI [14] was 2810 nM, the GI50 [15] was 1590 nM and the TGI [15] was 6150 nM. For the same compound, the GI50 [16] was 684 nM, the TGI [16] was 2640 nM and the GI50 [17] was 1610 nM. The TGI [17] was over 50000 nM, the GI50 [18] was 13800 nM and the TGI [18] was over 50000 nM. It also gave a GI50 [19] of 1810 nM, a TGI [19] of over 50000 nM and a GI50 [20] of 1370 nM. For the same compound, the TGI [20] was over 50000 nM, the GI50 [21] was 1670 nM and the TGI [21] was 6650 nM. For the same compound, the GI50 [22] was 1630 nM, the TGI [22] was 9820 nM and the GI50 [23] was 1010 nM. It also gave a TGI [23] of 3070 nM, a GI50 [24] of 1180 nM and a TGI [24] of over 50000 nM. The GI50 [25] was 1430 nM, the TGI [25] was 6510 nM and the GI50 [26] was 1540 nM. The TGI [26] was 5860 nM, the GI50 [27] was 1510 nM and the TGI [27] was 10100 nM. For the same compound, the GI50 [28] was 1070 nM, the TGI [28] was 3230 nM and the GI50 [29] was 1460 nM. For the same compound, the TGI [29] was over 50000 nM, the GI50 [30] was 923 nM and the TGI [30] was over 50000 nM. For the same compound, the GI50 [31] was 1370 nM, the TGI [31] was over 50000 nM and the GI50 [32] was 1550 nM. It also gave a TGI [32] of over 50000 nM, a GI50 [33] of 1650 nM and a TGI [33] of over 50000 nM. It also gave a GI50 [34] of 1490 nM, a TGI [34] of over 50000 nM and a GI50 [35] of 768 nM. The TGI [35] was 2720 nM, the GI50 [36] was 1250 nM and the TGI [36] was 3870 nM. It also gave a GI50 [37] of 1580 nM, a TGI [37] of over 50000 nM and a GI50 [38] of 1200 nM. It also gave a TGI [38] of 3580 nM, a GI50 [39] of 1730 nM and a TGI [39] of over 50000 nM. It also gave a GI50 [40] of 979 nM, a TGI [40] of 2860 nM and a GI50 [41] of 1410 nM. For the same compound, the TGI [41] was 19100 nM, the GI50 [42] was 694 nM and the TGI [42] was 1670 nM. It also gave a GI50 [43] of 1370 nM, a TGI [43] of 4700 nM and a GI50 [44] of 1090 nM. For the same compound, the TGI [44] was 4630 nM, the GI50 [45] was 1650 nM and the TGI [45] was over 50000 nM. The GI50 [46] was 906 nM, the TGI [46] was 2720 nM and the GI50 [47] was 1920 nM. It also gave a TGI [47] of over 50000 nM, a GI50 [48] of 1790 nM and a TGI [48] of over 50000 nM. The GI50 [49] was 1700 nM, the TGI [49] was over 50000 nM and the GI50 [50] was 1480 nM. For the same compound, the TGI [50] was over 50000 nM, the GI50 [51] was 781 nM and the TGI [51] was 3600 nM. It also gave a GI50 [52] of 628 nM and a TGI [52] of 2410 nM.
With C=C(C)[C@@H]1CC[C@]2(COP(=O)(OCC)OCC)CC[C@]3(C)[C@H](CC[C@@H]4[C@@]5(C)CCCNC(C)(C)[C@@H]5CC[C@]43C)[C@@H]12 the GI50 [1] was 1710 nM, the TGI [1] was 3210 nM and the GI50 [4] was 1730 nM. The TGI [4] was 3140 nM, the GI50 [5] was 1680 nM and the TGI [5] was 3090 nM. The GI50 [6] was 1500 nM, the TGI [6] was 2990 nM and the GI50 [7] was 1710 nM. The TGI [7] was 3850 nM, the GI50 [9] was 1790 nM and the TGI [9] was 3390 nM. It also gave a GI50 [10] of 1460 nM, a TGI [10] of 2880 nM and a GI50 [11] of 1720 nM. It also gave a TGI [11] of 3220 nM, a GI50 [13] of 1560 nM and a TGI [13] of 3050 nM. It also gave a GI50 [16] of 1230 nM, a TGI [16] of 2570 nM and a GI50 [19] of 1610 nM. The TGI [19] was 3180 nM, the GI50 [20] was 1660 nM and the TGI [20] was 7000 nM. It also gave a GI50 [23] of 1680 nM, a TGI [23] of 3370 nM and a GI50 [24] of 1330 nM. For the same compound, the TGI [24] was 2970 nM, the GI50 [53] was 1750 nM and the TGI [53] was 3330 nM. The GI50 [25] was 1730 nM, the TGI [25] was 3180 nM and the GI50 [26] was 1850 nM. For the same compound, the TGI [26] was 4720 nM, the GI50 [29] was 1790 nM and the TGI [29] was 4620 nM. For the same compound, the GI50 [54] was 1660 nM, the TGI [54] was 3260 nM and the GI50 [55] was 1670 nM. The TGI [55] was 3380 nM, the GI50 [31] was 1540 nM and the TGI [31] was 3130 nM. For the same compound, the GI50 [32] was 1720 nM, the TGI [32] was 3140 nM and the GI50 [34] was 1590 nM. It also gave a TGI [34] of 2980 nM, a GI50 [36] of 1550 nM and a TGI [36] of 2910 nM. The GI50 [38] was 1680 nM, the TGI [38] was 3150 nM and the GI50 [39] was 1730 nM. It also gave a TGI [39] of 3240 nM, a GI50 [41] of 1750 nM and a TGI [41] of 3180 nM. It also gave a GI50 [43] of 1690 nM, a TGI [43] of 3250 nM and a GI50 [44] of 1570 nM. It also gave a TGI [44] of 3150 nM, a GI50 [45] of 1710 nM and a TGI [45] of 3170 nM. For the same compound, the GI50 [46] was 1220 nM, the TGI [46] was 2850 nM and the GI50 [47] was 1410 nM. For the same compound, the TGI [47] was 4090 nM, the GI50 [49] was 1860 nM and the TGI [49] was 3580 nM. It also gave a GI50 [52] of 1700 nM, a TGI [52] of 3200 nM and a GI50 [56] of 1440 nM. The TGI [56] was 2810 nM.
